Results: PMC6437697 (Journal of Medicinal Chemistry, 2019)
≈ marks a conversion by molar mass, not a printed value.

Key:
EGFR(E746-A750del) = biological target: T1, EGFR(E746-A750del) (Homo sapiens, UniProt P00533, DEL746-750); assay: KINOMEscan; type: binding; settings: read-out: % control activity remaining
T1 construct: purchased Eurofins DiscoverX KINOMEscan

ASK2 = biological target: T2, ASK2 (Homo sapiens, UniProt O95382); assay: KINOMEscan; type: binding; settings: read-out: % control activity remaining
T2 construct: purchased Eurofins DiscoverX KINOMEscan
T2 sequence (O95382 1-1288): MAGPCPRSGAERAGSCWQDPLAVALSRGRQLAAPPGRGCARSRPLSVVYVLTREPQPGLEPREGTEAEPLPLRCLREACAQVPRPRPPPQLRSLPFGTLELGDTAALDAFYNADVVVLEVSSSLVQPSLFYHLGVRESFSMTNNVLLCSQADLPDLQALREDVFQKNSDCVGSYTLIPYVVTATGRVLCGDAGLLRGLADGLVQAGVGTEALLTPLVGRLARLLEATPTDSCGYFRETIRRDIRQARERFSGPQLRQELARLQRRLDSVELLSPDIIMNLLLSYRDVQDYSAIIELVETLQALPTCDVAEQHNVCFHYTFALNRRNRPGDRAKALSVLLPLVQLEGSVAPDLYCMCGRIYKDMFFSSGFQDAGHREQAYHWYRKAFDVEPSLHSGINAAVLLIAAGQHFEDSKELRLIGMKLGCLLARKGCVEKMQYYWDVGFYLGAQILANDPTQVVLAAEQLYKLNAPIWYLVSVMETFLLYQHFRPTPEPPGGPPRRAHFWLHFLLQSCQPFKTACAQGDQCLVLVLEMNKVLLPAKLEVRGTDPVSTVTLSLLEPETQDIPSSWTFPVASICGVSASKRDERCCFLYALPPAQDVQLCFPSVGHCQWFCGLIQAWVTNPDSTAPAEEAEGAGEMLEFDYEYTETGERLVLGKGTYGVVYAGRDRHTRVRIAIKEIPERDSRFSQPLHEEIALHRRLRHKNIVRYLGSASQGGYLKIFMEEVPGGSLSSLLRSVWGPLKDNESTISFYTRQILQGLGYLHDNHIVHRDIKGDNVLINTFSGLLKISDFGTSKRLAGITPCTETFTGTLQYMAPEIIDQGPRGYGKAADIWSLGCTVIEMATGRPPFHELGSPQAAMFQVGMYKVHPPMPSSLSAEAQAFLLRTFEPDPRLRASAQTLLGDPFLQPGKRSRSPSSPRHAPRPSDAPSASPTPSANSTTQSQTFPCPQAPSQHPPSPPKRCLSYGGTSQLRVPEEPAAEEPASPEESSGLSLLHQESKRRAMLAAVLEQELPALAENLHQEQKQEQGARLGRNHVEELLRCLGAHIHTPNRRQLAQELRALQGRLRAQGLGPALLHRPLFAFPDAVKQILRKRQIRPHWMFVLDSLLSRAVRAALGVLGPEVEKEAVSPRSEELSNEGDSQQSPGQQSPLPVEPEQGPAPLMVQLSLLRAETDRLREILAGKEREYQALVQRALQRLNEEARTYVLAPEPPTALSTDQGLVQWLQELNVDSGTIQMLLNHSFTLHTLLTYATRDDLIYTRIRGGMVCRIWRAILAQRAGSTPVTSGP

ROCK1 = biological target: T3, ROCK1 (Homo sapiens, UniProt Q13464); assay: KINOMEscan; type: binding; settings: read-out: % control activity remaining
T3 construct: purchased Eurofins DiscoverX KINOMEscan
T3 sequence (Q13464 whole entry): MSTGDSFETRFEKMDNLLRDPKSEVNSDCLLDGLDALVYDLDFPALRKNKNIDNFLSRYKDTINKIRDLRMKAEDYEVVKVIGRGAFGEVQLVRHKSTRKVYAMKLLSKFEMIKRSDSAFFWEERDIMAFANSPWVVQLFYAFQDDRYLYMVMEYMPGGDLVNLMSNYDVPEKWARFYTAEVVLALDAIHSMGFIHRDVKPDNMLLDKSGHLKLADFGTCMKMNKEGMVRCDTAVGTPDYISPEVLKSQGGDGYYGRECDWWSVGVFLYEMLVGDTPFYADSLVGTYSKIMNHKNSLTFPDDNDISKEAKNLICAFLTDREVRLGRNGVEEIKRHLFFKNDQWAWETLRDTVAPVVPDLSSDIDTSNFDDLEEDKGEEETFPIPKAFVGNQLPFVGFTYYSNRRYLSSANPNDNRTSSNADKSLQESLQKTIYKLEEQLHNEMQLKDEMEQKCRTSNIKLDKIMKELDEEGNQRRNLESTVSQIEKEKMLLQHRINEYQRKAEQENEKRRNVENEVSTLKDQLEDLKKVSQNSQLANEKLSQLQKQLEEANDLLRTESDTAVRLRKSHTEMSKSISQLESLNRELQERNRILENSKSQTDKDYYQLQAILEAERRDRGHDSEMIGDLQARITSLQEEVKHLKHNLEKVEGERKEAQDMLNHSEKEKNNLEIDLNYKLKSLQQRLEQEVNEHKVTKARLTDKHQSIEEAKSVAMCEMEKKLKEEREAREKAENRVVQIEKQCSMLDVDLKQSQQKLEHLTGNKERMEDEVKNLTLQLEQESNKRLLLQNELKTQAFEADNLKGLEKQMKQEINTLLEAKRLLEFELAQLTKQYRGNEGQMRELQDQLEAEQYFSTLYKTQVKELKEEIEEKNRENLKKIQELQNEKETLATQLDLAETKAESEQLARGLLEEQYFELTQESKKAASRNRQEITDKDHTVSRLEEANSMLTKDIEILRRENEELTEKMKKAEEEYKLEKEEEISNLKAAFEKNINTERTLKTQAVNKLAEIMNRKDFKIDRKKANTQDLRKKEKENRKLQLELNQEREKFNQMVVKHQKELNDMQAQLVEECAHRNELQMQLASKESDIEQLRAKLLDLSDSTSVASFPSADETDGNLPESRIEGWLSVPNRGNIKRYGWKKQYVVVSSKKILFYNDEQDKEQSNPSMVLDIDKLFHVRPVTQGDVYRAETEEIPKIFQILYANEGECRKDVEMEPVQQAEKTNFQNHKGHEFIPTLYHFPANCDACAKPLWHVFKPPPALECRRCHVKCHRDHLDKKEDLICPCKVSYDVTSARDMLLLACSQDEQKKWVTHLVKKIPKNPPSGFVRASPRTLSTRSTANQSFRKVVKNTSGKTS

PIK3C2B = biological target: T4, PIK3C2B (Homo sapiens, UniProt O00750); assay: KINOMEscan; type: binding; settings: read-out: % control activity remaining
T4 construct: purchased Eurofins DiscoverX KINOMEscan
T4 sequence (O00750 whole entry): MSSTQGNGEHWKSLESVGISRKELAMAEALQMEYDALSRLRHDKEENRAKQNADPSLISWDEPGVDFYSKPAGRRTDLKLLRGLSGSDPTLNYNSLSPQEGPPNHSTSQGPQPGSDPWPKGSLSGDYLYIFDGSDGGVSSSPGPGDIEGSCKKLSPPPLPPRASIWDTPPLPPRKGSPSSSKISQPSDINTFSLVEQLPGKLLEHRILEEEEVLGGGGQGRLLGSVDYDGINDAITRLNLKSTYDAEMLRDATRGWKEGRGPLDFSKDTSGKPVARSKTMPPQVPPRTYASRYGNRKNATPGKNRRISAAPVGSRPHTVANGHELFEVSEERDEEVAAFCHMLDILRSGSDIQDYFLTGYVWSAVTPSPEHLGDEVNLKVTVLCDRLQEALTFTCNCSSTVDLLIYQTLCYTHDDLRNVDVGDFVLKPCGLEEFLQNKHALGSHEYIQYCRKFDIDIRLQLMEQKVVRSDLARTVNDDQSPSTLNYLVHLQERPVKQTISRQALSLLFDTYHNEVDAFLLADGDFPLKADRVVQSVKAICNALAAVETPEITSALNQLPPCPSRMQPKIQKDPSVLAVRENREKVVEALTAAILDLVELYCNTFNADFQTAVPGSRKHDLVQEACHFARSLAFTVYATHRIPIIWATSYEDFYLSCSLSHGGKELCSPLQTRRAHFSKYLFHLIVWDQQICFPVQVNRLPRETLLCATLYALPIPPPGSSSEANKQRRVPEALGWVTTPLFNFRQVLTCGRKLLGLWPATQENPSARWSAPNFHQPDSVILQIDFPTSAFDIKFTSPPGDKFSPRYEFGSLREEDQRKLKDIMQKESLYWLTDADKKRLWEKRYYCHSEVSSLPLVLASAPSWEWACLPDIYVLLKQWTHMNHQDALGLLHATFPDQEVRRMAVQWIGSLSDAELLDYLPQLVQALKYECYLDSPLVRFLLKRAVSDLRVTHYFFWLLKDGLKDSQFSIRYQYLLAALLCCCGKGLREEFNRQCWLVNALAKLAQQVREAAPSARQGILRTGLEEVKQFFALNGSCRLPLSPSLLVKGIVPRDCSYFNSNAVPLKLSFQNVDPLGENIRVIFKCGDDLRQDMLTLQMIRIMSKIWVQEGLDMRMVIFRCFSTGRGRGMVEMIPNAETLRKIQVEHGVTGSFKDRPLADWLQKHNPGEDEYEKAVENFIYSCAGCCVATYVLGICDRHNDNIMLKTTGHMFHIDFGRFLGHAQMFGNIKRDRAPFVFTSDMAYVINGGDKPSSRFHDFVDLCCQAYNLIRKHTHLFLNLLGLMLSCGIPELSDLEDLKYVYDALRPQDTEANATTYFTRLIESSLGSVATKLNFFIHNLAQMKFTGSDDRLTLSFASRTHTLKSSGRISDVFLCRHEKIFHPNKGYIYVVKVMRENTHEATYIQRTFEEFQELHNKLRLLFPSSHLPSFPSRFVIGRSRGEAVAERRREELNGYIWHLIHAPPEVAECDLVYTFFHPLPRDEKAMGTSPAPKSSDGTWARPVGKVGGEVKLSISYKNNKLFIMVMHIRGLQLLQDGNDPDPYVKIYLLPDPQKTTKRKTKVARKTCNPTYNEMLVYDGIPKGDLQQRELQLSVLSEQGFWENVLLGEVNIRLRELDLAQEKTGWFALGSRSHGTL

PLK4 = biological target: T5, PLK4 (Homo sapiens, UniProt O00444); assay: KINOMEscan; type: binding; settings: read-out: % control activity remaining
T5 construct: purchased Eurofins DiscoverX KINOMEscan
T5 sequence (O00444 1-970): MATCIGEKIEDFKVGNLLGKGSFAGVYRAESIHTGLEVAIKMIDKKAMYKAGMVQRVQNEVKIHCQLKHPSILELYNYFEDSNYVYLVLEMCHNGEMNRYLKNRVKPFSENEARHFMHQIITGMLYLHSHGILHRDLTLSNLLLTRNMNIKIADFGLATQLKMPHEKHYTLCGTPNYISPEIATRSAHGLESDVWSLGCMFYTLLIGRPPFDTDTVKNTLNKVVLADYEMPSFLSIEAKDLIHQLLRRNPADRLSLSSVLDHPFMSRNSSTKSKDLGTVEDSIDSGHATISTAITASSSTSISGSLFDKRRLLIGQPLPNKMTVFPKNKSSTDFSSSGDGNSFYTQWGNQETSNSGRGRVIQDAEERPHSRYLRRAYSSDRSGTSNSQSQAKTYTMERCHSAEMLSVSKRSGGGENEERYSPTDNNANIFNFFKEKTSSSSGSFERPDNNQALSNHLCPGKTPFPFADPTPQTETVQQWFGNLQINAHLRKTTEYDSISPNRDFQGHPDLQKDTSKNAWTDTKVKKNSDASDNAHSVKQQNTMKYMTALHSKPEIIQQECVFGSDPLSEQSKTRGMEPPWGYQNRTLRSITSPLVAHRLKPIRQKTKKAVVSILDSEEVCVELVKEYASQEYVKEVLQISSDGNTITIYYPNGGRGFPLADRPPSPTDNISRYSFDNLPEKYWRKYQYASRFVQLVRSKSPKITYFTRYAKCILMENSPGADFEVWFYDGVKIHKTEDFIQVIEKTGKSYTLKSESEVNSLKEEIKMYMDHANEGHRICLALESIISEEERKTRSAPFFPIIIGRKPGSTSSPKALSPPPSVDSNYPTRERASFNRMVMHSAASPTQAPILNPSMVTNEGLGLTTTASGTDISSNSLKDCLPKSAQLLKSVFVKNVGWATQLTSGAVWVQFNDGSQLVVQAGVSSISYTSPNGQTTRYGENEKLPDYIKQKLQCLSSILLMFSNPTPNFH

CAMK1B = biological target: T6, CAMK1B (Homo sapiens, UniProt Q6P2M8); assay: KINOMEscan; type: binding; settings: read-out: % control activity remaining
T6 construct: purchased Eurofins DiscoverX KINOMEscan

IRE1β = IRE1β (Homo sapiens, UniProt Q76MJ5); assay: biochemical; type: binding
Sequence of IRE1β (Q76MJ5 35-926): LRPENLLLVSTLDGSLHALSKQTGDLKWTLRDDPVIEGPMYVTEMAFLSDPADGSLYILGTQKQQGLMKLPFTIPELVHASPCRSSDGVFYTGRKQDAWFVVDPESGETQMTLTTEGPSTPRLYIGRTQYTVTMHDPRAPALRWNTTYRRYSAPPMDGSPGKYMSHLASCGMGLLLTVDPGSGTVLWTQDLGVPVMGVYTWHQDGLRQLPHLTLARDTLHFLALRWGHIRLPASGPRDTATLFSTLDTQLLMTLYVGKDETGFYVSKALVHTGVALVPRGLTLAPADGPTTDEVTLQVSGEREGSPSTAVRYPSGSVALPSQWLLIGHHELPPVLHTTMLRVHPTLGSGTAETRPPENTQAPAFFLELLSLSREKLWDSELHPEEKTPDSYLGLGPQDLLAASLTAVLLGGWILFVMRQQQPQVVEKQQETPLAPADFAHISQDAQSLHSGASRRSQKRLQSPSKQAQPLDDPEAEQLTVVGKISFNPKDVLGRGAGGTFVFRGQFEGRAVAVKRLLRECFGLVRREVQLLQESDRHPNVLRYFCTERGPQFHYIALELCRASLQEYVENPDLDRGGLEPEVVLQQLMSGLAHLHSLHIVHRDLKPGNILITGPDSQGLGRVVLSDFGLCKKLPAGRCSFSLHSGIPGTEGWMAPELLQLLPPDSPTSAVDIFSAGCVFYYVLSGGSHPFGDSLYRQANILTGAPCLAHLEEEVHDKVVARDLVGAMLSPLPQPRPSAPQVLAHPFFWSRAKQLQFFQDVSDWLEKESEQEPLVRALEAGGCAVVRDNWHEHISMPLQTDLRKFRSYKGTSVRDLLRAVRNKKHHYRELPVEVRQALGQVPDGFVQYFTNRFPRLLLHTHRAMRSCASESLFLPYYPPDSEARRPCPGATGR

WNK4 = biological target: T7, WNK4 (Homo sapiens, UniProt Q96J92); assay: KINOMEscan; type: binding; settings: read-out: % control activity remaining
T7 construct: purchased Eurofins DiscoverX KINOMEscan

[1] = Aqueous buffer solubility (KSol)
[2] = test system: IRE1α-dependent splicing of XBP1u-luciferase mRNA reporter in HEK293 cells; assay: XBP1 luciferase fusion mRNA splicing reporter in HEK293 cells; type: cell-based, human; settings: Homo sapiens, HEK293, read-out: tunicamycin- and thapsigargin-induced splicing of XBP1 luciferase fusion mRNA IC50
[3] = test system: GFP-IRE1α oligomerization in HEK293 cells; assay: GFP-IRE1α foci (oligomerization) assay in HEK293 cells; type: cell-based, human; settings: absence of tunicamycin
PKFYVE = biological target: T8, PKFYVE (Homo sapiens, UniProt Q9Y2I7); assay: KINOMEscan; type: binding; settings: read-out: % control activity remaining
T8 construct: purchased Eurofins DiscoverX KINOMEscan

GRK2 = biological target: T9, GRK2 (Homo sapiens, UniProt P25098); assay: KINOMEscan; type: binding; settings: read-out: % control activity remaining
T9 construct: purchased Eurofins DiscoverX KINOMEscan
T9 sequence (P25098 whole entry): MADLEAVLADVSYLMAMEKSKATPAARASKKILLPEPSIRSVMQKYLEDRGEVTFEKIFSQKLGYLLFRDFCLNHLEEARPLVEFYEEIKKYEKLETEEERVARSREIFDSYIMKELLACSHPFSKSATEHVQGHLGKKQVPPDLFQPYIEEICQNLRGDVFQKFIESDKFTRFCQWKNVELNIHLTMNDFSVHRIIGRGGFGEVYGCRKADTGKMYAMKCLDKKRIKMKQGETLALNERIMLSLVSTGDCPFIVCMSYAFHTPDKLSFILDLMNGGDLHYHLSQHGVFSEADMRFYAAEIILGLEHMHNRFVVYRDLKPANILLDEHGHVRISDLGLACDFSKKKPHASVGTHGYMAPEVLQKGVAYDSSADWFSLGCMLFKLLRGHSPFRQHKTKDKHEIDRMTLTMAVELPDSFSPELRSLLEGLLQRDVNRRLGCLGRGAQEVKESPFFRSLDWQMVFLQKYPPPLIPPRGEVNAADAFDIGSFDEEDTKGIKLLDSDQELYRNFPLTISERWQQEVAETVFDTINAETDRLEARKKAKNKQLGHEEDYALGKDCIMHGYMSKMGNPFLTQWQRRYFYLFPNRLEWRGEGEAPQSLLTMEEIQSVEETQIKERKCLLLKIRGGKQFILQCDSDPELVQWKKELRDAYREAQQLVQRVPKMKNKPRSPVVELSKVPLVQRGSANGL

T1 sequence (P00533 with tags, fused parts or gaps DEL746-750 limits assumed): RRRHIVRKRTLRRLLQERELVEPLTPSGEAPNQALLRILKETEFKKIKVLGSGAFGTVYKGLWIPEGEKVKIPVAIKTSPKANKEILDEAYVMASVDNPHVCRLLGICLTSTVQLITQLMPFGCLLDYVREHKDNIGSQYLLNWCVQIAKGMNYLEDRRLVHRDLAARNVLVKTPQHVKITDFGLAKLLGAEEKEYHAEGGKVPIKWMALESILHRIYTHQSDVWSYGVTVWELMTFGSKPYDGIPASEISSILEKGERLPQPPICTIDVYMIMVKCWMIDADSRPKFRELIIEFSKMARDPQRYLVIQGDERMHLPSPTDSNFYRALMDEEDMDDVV

## Clc1cc(NCC2CC2)c2ncc(-c3ccc4[nH]ncc4c3)n2n1 [compound 2, 6-Chloro-N-(cyclopropylmethyl)-3-(1H-indazol-5-yl)imidazo[1,2-b]pyridazin-8-amine]
EGFR(E746-A750del)
  remaining binding at 1 µM: 84%
ASK2
  remaining binding at 1 µM: 83%
ROCK1
  remaining binding at 1 µM: 36%
PIK3C2B
  remaining binding at 1 µM: 86%
PLK4
  remaining binding at 1 µM: 87%

## O=C(CN1CCOCC1)N[C@H]1CC[C@H](Nc2cc(Cl)nn3c(-c4ccc5[nH]ncc5c4)cnc23)CC1 [compound 26]
CAMK1B
  remaining binding at 1 µM: 75%
IRE1β
  IC50: 345 nM
  selectivity for IRE1α over the IRE1β isoform: 9 fold
WNK4
  remaining binding at 1 µM: 100%
[1]
  solubility: 80 µM (≈ 40.7 µg/mL)
[2]
  IC50: 680 to 1630 nM
EGFR(E746-A750del)
  remaining binding at 1 µM: 91%
ASK2
  remaining binding at 1 µM: 96%
ROCK1
  remaining binding at 1 µM: 22%
[3]
  stimulation of GFP-IRE1α foci formation by compound on its own: No stimulation
PIK3C2B
  remaining binding at 1 µM: 97%
PLK4
  remaining binding at 1 µM: 100%
PKFYVE
  remaining binding at 1 µM: 87%
GRK2
  remaining binding at 1 µM: 84%

## CN1CCC(CNc2cc(Cl)nn3c(-c4cc5nc(Nc6ccccc6)[nH]c5cc4F)cnc23)CC1 [compound 31, 6-Chloro-3-(6-fluoro-2-(phenylamino)-1H-benzo[d]imidazol-5-yl)-N-((1-methylpiperidin-4-yl)methyl)imidazo[1,2-b]pyridazin-8-amine]
CAMK1B
  remaining binding at 1 µM: 100%
IRE1β
  IC50: 7680 nM
  selectivity for IRE1α over the IRE1β isoform: 100 fold
WNK4
  remaining binding at 1 µM: 83%
[1]
  solubility: 38 µM (≈ 19.2 µg/mL)
[2]
  IC50: 680 to 1630 nM
EGFR(E746-A750del)
  remaining binding at 1 µM: 100%
ASK2
  remaining binding at 1 µM: 100%
ROCK1
  remaining binding at 1 µM: 76%
[3]
  stimulation of GFP-IRE1α foci formation by compound on its own: No stimulation
PIK3C2B
  remaining binding at 1 µM: 100%
PLK4
  remaining binding at 1 µM: 99%
PKFYVE
  remaining binding at 1 µM: 26%
GRK2
  remaining binding at 1 µM: 100%
